Experimental data reported in ChEMBL document CHEMBL5465560, “Selectivity Literature for EUbOPEN Chemogenomic Library” (2024).
One block for each compound: values may come before it.

How the values were obtained:
[1] = biological target: T1, Tyrosine-protein kinase JAK3 (Homo sapiens) (UniProt P52333); details: at 10 µM
T1 sequence (whole entry): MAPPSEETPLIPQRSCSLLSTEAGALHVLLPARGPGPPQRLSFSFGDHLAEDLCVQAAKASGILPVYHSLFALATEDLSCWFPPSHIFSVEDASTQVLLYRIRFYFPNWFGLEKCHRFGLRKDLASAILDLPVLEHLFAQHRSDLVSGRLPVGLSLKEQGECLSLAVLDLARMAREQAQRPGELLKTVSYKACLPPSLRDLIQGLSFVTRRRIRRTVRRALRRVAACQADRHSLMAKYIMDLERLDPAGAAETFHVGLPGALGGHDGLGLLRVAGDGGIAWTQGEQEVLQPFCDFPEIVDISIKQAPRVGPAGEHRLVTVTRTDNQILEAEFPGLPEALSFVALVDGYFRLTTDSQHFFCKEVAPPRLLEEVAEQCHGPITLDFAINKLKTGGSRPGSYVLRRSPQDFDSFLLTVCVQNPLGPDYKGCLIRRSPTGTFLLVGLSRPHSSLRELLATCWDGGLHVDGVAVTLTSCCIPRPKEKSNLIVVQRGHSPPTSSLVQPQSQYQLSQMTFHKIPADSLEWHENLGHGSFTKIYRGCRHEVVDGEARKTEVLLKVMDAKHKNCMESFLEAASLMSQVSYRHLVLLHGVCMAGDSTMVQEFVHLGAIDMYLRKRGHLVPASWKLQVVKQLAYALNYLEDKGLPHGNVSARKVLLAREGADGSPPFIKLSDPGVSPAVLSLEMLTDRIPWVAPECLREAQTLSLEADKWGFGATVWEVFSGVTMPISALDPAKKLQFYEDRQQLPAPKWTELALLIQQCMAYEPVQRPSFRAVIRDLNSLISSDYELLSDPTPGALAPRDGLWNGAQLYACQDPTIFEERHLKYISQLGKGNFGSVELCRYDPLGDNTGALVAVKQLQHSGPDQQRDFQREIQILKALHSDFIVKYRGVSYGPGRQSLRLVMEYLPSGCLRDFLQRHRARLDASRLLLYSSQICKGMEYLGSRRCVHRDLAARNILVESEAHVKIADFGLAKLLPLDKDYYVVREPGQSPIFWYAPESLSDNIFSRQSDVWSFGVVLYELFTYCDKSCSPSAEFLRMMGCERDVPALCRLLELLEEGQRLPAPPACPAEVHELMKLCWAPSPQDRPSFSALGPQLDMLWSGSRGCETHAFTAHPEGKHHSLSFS

[2] = biological target: Non-receptor tyrosine-protein kinase TYK2 (Homo sapiens, UniProt P29597); details: at 10 µM
Non-receptor tyrosine-protein kinase TYK2, sequence (P29597 whole entry): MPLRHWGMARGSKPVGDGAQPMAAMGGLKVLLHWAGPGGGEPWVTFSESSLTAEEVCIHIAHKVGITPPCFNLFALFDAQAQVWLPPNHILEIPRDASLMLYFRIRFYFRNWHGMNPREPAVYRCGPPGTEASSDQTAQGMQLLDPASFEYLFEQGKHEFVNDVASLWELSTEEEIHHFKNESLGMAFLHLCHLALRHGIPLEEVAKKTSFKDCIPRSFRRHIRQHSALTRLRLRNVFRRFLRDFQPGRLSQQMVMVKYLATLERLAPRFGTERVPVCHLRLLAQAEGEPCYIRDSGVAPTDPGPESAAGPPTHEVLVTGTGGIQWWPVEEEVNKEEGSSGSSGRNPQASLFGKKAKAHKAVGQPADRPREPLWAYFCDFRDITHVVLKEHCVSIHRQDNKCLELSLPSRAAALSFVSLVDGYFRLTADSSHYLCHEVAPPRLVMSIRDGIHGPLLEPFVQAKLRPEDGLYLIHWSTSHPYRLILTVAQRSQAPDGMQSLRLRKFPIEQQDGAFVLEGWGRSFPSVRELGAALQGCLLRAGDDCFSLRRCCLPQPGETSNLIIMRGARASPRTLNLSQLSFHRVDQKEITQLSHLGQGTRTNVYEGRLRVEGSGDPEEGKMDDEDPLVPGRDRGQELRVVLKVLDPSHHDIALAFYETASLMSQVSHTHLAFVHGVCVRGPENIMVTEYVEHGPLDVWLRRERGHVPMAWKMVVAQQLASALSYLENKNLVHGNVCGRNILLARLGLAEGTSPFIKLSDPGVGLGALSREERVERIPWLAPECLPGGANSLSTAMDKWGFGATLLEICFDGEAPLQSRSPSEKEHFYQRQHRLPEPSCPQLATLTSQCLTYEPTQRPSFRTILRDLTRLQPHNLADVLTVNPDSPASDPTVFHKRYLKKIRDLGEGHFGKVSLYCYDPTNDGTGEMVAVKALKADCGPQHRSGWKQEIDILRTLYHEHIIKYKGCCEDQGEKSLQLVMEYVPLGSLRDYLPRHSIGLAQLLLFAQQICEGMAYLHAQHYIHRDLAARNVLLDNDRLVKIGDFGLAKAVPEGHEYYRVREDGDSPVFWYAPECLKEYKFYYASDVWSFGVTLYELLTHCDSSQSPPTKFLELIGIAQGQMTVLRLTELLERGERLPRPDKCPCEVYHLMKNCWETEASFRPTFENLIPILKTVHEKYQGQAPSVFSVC

[3] = biological target: Mitogen-activated protein kinase 8 (Homo sapiens, UniProt P45983); experiment: Selectivity interaction (Ambit KINOMEscan and KiNATiv profiling in Jurkat cells) EUB0000090b MAPK8; type: cell-based; details: at 1 µM
Mitogen-activated protein kinase 8, sequence (P45983 whole entry): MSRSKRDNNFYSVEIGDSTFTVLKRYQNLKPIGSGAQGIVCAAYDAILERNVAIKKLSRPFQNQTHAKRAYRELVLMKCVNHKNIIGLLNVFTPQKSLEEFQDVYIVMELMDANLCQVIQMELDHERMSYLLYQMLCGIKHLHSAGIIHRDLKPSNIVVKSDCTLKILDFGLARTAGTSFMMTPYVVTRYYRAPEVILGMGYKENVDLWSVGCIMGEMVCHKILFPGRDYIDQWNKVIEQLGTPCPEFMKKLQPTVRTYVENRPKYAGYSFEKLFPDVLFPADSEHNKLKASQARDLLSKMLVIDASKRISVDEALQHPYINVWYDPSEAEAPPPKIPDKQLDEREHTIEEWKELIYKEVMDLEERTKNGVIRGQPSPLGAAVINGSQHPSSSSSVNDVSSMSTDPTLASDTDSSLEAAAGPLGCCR

[4] = biological target: Serine/threonine-protein kinase PRP4 homolog (Homo sapiens) (UniProt Q13523); experiment: Selectivity interaction (ActivX KiNativ screen (kinase selectivity in THP-1 cell lysates)) EUB0000639a PRPF4; type: subcellular; details: lysate, at 0.01 µM
Serine/threonine-protein kinase PRP4 homolog (Homo sapiens), sequence (Q13523 whole entry): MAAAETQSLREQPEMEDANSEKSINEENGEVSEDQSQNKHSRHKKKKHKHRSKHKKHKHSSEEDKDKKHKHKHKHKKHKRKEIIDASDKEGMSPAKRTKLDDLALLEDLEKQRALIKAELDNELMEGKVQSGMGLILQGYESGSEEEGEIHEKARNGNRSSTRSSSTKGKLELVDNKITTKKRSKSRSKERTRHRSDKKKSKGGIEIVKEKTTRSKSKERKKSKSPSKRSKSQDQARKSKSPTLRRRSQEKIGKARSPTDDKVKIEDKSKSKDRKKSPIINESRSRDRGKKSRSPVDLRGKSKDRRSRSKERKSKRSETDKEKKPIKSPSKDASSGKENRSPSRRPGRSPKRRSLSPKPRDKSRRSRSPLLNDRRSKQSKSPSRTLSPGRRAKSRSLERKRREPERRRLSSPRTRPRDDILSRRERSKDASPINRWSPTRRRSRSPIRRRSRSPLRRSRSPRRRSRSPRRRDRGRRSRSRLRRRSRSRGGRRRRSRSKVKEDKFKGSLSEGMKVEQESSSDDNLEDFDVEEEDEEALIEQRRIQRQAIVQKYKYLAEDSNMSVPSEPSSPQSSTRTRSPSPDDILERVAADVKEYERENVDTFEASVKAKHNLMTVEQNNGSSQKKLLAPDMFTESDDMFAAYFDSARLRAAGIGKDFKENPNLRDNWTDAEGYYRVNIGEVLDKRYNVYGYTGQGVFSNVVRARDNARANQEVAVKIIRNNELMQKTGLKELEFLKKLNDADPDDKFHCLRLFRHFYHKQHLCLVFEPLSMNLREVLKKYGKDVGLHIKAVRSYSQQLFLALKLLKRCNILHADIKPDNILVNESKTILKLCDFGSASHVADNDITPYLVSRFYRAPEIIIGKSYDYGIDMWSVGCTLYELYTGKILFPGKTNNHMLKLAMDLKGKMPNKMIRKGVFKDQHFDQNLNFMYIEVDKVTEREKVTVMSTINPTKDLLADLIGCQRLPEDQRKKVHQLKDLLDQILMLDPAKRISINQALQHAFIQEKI

Vasopressin V2 receptor = Vasopressin V2 receptor (Homo sapiens, UniProt P30518); experiment: Selectivity interaction (Vasopressin V2 receptor binding assay, human recombinant ) EUB0000877a AVPR2
Vasopressin V2 receptor, sequence (P30518 whole entry): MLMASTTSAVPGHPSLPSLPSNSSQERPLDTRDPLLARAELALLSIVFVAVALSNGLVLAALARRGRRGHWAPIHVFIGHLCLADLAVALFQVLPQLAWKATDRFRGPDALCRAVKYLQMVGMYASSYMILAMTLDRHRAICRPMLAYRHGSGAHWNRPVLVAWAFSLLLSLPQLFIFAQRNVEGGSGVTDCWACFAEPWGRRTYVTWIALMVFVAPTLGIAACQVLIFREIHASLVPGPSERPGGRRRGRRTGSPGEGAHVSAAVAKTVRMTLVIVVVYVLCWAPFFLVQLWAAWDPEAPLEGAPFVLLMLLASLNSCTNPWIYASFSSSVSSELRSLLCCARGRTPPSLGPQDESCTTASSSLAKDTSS

[5] = biological target: Serine/threonine-protein kinase WNK2 (Homo sapiens) (UniProt Q9Y3S1); experiment: Selectivity interaction (LanthaScreen Eu Kinase Binding Assay) EUB0001632a WNK2; details: at 10 µM
Aurora kinase B = Aurora kinase B (Homo sapiens, UniProt Q96GD4); experiment: Selectivity interaction (KinomeScan (DiscoverX)) EUB0000595a AURKB; details: at 10 µM
Aurora kinase B, sequence (Q96GD4 whole entry): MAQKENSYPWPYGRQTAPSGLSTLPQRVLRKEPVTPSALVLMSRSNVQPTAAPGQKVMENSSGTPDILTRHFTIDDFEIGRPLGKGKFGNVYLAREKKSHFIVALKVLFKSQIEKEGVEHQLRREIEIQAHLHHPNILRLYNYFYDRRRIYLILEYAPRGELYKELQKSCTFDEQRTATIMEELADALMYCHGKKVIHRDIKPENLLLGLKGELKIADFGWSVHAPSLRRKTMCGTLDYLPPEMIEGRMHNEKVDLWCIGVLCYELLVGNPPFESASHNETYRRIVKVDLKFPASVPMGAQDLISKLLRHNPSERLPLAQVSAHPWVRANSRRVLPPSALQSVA

[6] = biological target: Insulin-like growth factor 1 receptor (Homo sapiens, UniProt P08069); experiment: Selectivity interaction (KinomeScan (DiscoverX)) EUB0001079a IGF1R; details: at 1 µM
Insulin-like growth factor 1 receptor, sequence (P08069 31-736 limits assumed): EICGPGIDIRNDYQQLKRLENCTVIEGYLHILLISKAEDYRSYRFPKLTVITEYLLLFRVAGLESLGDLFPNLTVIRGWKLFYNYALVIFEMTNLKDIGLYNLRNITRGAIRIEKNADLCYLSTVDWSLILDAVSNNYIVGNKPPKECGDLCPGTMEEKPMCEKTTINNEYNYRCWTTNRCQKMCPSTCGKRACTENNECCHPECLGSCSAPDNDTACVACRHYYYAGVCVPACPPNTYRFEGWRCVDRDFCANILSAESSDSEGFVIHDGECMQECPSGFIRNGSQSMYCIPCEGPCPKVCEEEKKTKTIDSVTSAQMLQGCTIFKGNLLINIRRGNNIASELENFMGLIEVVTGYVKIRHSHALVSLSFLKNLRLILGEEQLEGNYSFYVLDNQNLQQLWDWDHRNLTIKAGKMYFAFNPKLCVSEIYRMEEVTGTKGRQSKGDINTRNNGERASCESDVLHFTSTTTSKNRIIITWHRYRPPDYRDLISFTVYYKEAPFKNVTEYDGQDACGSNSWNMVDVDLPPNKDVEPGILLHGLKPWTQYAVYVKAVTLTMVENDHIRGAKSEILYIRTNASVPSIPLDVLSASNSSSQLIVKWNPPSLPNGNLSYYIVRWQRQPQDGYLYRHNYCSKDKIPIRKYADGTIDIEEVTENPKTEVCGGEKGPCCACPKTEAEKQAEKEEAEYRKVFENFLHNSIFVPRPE
Insulin-like growth factor 1 receptor, sequence (P08069 741-1367 limits assumed): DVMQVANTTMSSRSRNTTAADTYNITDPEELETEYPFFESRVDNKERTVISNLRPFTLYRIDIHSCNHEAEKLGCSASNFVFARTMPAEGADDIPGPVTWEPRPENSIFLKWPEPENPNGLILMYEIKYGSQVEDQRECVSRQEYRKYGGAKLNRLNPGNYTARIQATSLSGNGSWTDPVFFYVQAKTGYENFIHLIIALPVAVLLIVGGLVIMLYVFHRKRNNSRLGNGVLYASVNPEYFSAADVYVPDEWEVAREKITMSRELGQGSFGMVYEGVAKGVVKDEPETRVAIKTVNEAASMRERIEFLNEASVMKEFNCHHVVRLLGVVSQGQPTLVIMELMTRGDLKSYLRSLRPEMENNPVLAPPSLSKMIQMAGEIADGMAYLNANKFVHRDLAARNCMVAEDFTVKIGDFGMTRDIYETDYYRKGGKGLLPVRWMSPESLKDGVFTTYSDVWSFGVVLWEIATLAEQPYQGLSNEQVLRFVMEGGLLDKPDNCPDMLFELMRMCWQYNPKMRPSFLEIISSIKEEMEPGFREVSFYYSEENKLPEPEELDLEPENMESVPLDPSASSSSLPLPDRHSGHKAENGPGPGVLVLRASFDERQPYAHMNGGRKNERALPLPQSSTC

[7] = biological target: T2, Serine/threonine-protein kinase D1 (Homo sapiens) (UniProt Q15139); experiment: Selectivity interaction (KinomeScan (DiscoverX)) EUB0000092b PRKD1; details: at 10 µM
T2 sequence (whole entry): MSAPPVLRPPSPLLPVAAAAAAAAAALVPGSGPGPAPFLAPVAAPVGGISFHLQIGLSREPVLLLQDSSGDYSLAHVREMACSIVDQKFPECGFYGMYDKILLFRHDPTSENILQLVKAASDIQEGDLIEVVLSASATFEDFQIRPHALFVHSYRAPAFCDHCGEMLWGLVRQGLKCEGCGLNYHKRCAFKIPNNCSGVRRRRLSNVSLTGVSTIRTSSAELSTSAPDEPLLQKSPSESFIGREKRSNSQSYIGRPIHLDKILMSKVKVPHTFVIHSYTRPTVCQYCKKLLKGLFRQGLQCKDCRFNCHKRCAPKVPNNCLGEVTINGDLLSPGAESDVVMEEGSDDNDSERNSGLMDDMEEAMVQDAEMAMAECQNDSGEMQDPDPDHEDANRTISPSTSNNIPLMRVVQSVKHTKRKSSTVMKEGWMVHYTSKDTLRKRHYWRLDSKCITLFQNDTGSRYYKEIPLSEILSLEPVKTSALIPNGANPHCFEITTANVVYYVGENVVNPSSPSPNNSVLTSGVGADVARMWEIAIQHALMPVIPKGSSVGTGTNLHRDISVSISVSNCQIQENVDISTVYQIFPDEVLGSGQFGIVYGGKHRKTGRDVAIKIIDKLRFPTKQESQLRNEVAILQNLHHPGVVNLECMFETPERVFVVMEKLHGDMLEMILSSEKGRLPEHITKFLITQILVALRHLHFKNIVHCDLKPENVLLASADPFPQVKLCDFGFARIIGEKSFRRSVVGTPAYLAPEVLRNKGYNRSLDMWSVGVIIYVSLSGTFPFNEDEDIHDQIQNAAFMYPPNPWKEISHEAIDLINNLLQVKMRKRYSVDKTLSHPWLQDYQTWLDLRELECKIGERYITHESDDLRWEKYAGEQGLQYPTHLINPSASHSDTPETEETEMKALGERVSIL

[8] = biological target: Bromodomain-containing protein 4 (Homo sapiens, UniProt O60885); experiment: Selectivity interaction (Human bromodomain panel (DSF assay)) EUB0000233b BRD4

SMILES: Cc1cc([C@@H](C)Nc2ccccc2C(=O)O)c2nc(N3CCOCC3)cc(=O)n2c1 [AZD-6482]
- % of control [1]: 94%
- % of control [2]: 100%

SMILES: CN(C)C/C=C/C(=O)Nc1ccc(C(=O)N2CCCC(Nc3ncc(Cl)c(-c4c[nH]c5ccccc45)n3)C2)cc1 (stereo not given)
- % of control [3]: 0.95%

- % of inhibition [4]: 11%
SMILES: CC[C@@H]1[C@H](F)C(=O)N[C@@H]1COc1nccc2cc(C(N)=O)c(OC)cc12 [ZIMLOVISERTIB]

- IC50 (Vasopressin V2 receptor): > 30 µM
SMILES: CCC(=O)N1CC[C@H](Nc2ncnc3c2CN(c2cnc(OC)c(C(F)(F)F)c2)CC3)C1 [LENIOLISIB]

- % of inhibition [5]: -13.6%
SMILES: Cn1cc(-n2cnc3c(NCc4nc5cc(Cl)c(Cl)cc5[nH]4)nc(N4CCOCC4)nc32)cn1

SMILES: COCC(=O)NC/C=C/c1ccc2ncnc(Nc3ccc(Oc4ccc(C)nc4)c(C)c3)c2c1 [CP-724714]
- % of control (Aurora kinase B): 100%

SMILES: Nc1cnc(N2CCc3cc(S(=O)(=O)Nc4c(F)cc(Cl)cc4F)cc(N4CCCC4=O)c32)nc1 [TP-020n]
- % of control [6]: 90%

SMILES: CCC(=O)N1CCN(c2ccc(-n3c(=O)ccc4cnc5ccc(-c6cnc7ccccc7c6)cc5c43)cc2C(F)(F)F)CC1
- % of control [7]: 99%

- dTM [8]: < 2 K
SMILES: CN(C)CCCOc1ccc(-c2cc(NCCCn3cccn3)nc(S(C)(=O)=O)n2)cc1
